Source: US5017596A, “Arylpyrazolylcarbinol compounds with analgesic activity” (Laboratorios del Dr. Esteve, S.A., priority 1987, dated 1991)

What was measured:
Type in all cases: in vivo, Swiss male mice
[1] = tested on: contortions induced by acetylcholine bromide in mice; experiment: Analgesic activity: inhibition of the contortions induced by acetylcholine bromide in mice (Collier's method); conditions: Mus musculus, po; 160 mg/kg, administered orally; acetylcholine bromide 7.2 mg/kg i.p.; mean of the values at 40 and 120 minutes; read-out: % inhibition of contortions
Experimental: (§1) Swiss male mice weighing 17-22 grams are used. Groups containing a minimum of 4 animals are used.
Contortions are induced by the intraperitoneal injection of acetylcholine bromide (7.2 mg/kg, dissolved in physiological serum, a volume of 10 ml/kg of weight being administered) at the start of the experiment and the number of contortions is counted for 5 minutes, this being the reference number for each animal (mice with fewer than 2 contortions are rejected). Immediately afterwards, the test products are administered orally, at a dose of 160 mg/kg, in the form of a suspension or solution in gum arabic at a concentration of 5% (w/v) in distilled water. 40 and 120 minutes after the treatment, acetylcholine bromide is administered again, the contortions are noted and the readings at 40 and 120 minutes are evaluated, taking the contortions of the initial reading as the reference.

[2] = tested on: contortions induced by phenylbenzoquinone in mice; experiment: Analgesic activity: inhibition of the contortions induced by phenylbenzoquinone in mice (Siegmund's method); conditions: Mus musculus, po; 160 mg/kg, administered orally 60 minutes before phenylbenzoquinone i.p.; contortions counted for 15 minutes; read-out: % inhibition of contortions
Experimental: Analgesic activity: Inhibition of the contortions induced by phenylbenzoquinone in mice--Siegmund's method (E. Siegmund, R. Cadmus and G. Lu, Proc Soc. Exp. Biol. Med., 95, 729 (1957))
as §1
Contortions are induced by the intraperitoneal injection of phenyl-p-benzoquinone (25 ml/kg of a 0.02% solution in a solution of ethanol at a concentration of 5% (v/v) in distilled water, with Evans blue in a proportion of 0.1% (w/v)) and are counted for 15 minutes as from the time of injection. Each product is suspended or dissolved in gum arabic at a concentration of 5% (w/v) in distilled water and is administered orally, at a dose of 160 mg/kg, 60 minutes before the injection of phenylbenzoquinone. The inhibition of contortions due to each product is determined, taking as the reference the contortions in a group of control animals to which only the vehicle is administered orally 60 minutes before the phenylbenzoquinone.

[3] = tested on: contortions induced by acetic acid in mice; experiment: Analgesic activity: inhibition of the contortions induced by acetic acid in mice (Koster's method); conditions: Mus musculus, po; 160 mg/kg, administered orally 60 minutes before acetic acid i.p.; contortions counted for 15 minutes; read-out: % inhibition of contortions
Experimental: Swiss male mice weighing 17-22 grams are used. Groups containing a minimum of 4 animals for each dose are used.
Each product is suspended or dissolved in gum arabic at a concentration of 5% (w/v) in distilled water and is administered orally, at a dose of 160 mg/kg, 60 minutes before the injection of acetic acid.

## CN(C)CCCOC(c1ccc(C(F)(F)F)cc1)c1nccn1C (centres unmarked) [Example 74]
[1]
  inhibition in vivo at 160 mg/kg: 100%

## COc1ccc(C(OCCCN(C)C)c2nccn2C)cc1 (centres unmarked) [Example 75]
[1]
  inhibition in vivo at 160 mg/kg: 100%

## CCCCC(OCCCN(C)C)(c1cccc(C(F)(F)F)c1)c1nccn1C (centres unmarked) [Example 76]
[1]
  inhibition in vivo at 160 mg/kg: 100%

## CCCCn1ccnc1C(C)(OCCCN(C)C)c1ccc(Cl)cc1 (centres unmarked) [Example 77]
[1]
  inhibition in vivo at 160 mg/kg: 100%

## Cn1ccnc1C(OCCCN1CCCCC1)c1ccc(Cl)cc1 (centres unmarked) [Example 82]
[1]
  inhibition in vivo at 160 mg/kg: 83.8%

## Cn1ccnc1C(C)(OCCCN1CCCCC1)c1ccc(C(F)(F)F)cc1 (centres unmarked) [Example 83]
[1]
  inhibition in vivo at 160 mg/kg: 88.3%

## CN(C)CCCOC(C)(c1ccc(Cl)c(Cl)c1)c1nccn1C (centres unmarked) [Example 86]
[2]
  inhibition in vivo at 160 mg/kg: 98.8%
[3]
  inhibition in vivo at 160 mg/kg: 50%

## CN(C)CCCOC(c1ccc(Cl)c(Cl)c1)c1nccn1C (centres unmarked) [Example 87]
[2]
  inhibition in vivo at 160 mg/kg: 77.5%

## CN(C)CCCOC(c1ccc(Cl)cc1)(c1nccn1C)C1CCN(C)CC1 (centres unmarked) [Example 91]
[2]
  inhibition in vivo at 160 mg/kg: 57.5%

## CN(C)CCCOC(c1ccccc1)c1ccnn1C (centres unmarked) [Example 94]
[2]
  inhibition in vivo at 160 mg/kg: 40%

## CN(C)CCCOC(C)(c1ccccc1)c1ccnn1C (centres unmarked) [Example 95]
[2]
  inhibition in vivo at 160 mg/kg: 45%

## Cn1ccnc1C(O)c1ccc(Cl)cc1 (centres unmarked) [Example 107]
[1]
  inhibition in vivo at 160 mg/kg: 57.5%

## Cn1ccnc1C(O)c1cccc(C(F)(F)F)c1 (stereo not drawn) [Example 110, 1-methyl-α-(3-trifluoromethylphenyl)-1H-imidazole-2-methanol]
[1]
  inhibition in vivo at 160 mg/kg: 57.5%

## Cn1ccnc1C(O)c1ccc(C(F)(F)F)cc1 (centres unmarked) [Example 111]
[1]
  inhibition in vivo at 160 mg/kg: 87.5%

## Cn1ccnc1C(O)c1ccc(Cl)c(Cl)c1 (centres unmarked) [Example 113]
[2]
  inhibition in vivo at 160 mg/kg: 57.5%

## CCCCn1ccnc1C(O)c1ccc(Cl)cc1Cl (centres unmarked) [Example 115]
[2]
  inhibition in vivo at 160 mg/kg: 39.5%
[3]
  inhibition in vivo at 160 mg/kg: 50%

## CCCCn1ccnc1C(O)c1ccc(Cl)cc1 (centres unmarked) [Example 116]
[2]
  inhibition in vivo at 160 mg/kg: 27.5%

## CCCCn1ccnc1C(O)c1cc(OC)c(OC)c(OC)c1 (centres unmarked) [Example 117]
[1]
  inhibition in vivo at 160 mg/kg: 60%

## CCCCC(O)(c1cccc(Cl)c1)c1nccn1C (centres unmarked) [Example 119]
[3]
  inhibition in vivo at 160 mg/kg: 45%
[1]
  inhibition in vivo at 160 mg/kg: 90%

## Cn1ccnc1C(C)(O)c1ccc(Cl)cc1 (stereo not drawn) [Example 121, α-(4-chlorophenyl)-α-methyl-1-methyl-1H-imidazole-2-methanol]
[1]
  inhibition in vivo at 160 mg/kg: 70%

## Cn1ccnc1C(C)(O)c1ccccc1Cl (centres unmarked) [Example 126]
[1]
  inhibition in vivo at 160 mg/kg: 65%

## CCCCC(O)(c1ccccc1Cl)c1nccn1C (centres unmarked) [Example 127]
[1]
  inhibition in vivo at 160 mg/kg: 70%

## Cn1ccnc1C(C)(O)c1cccc(C(F)(F)F)c1 (centres unmarked) [Example 128]
[2]
  inhibition in vivo at 160 mg/kg: 67.5%
[3]
  inhibition in vivo at 160 mg/kg: 52.5%
[1]
  inhibition in vivo at 160 mg/kg: 82.5%

## CCCCC(O)(c1cccc(C(F)(F)F)c1)c1nccn1C (centres unmarked) [Example 129]
[1]
  inhibition in vivo at 160 mg/kg: 55%

## COc1ccc(C(C)(O)c2nccn2C)cc1 (centres unmarked) [Example 133]
[1]
  inhibition in vivo at 160 mg/kg: 52.5%

## COc1cc(C(C)(O)c2nccn2C)cc(OC)c1OC (centres unmarked) [Example 137]
[1]
  inhibition in vivo at 160 mg/kg: 85%

## CCCCn1ccnc1C(O)(CCCC)c1cc(OC)c(OC)c(OC)c1 (centres unmarked) [Example 141]
[1]
  inhibition in vivo at 160 mg/kg: 62.5%

## CCCCn1ccnc1C(O)(CCCC)c1ccccc1Cl (centres unmarked) [Example 142]
[1]
  inhibition in vivo at 160 mg/kg: 80%

## CCCCn1ccnc1C(O)(CCCC)c1ccc(Cl)cc1Cl (centres unmarked) [Example 144]
[1]
  inhibition in vivo at 160 mg/kg: 88.8%

## CN(C)CCCn1ccnc1C(C)(O)c1ccc(Cl)cc1 (centres unmarked) [Example 146]
[2]
  inhibition in vivo at 160 mg/kg: 28.5%

## CN1CCOC(c2ccccc2)c2ccccc2C1 (centres unmarked) [Nefopam, reference compound]
[2]
  inhibition in vivo at 160 mg/kg: 97.5%
[3]
  inhibition in vivo at 160 mg/kg: 98%
[1]
  inhibition in vivo at 160 mg/kg: 100%

## CC(=O)Nc1ccc(O)cc1 [Paracetamol, reference compound]
[2]
  inhibition in vivo at 160 mg/kg: 47.5%
[3]
  inhibition in vivo at 160 mg/kg: 20%
[1]
  inhibition in vivo at 160 mg/kg: 72.5%
